Measured values as given in patent US8134015B2, “Compound inhibiting in vivo phosphorous transport and medicine containing the same” (Kyowa Hakko Kirin Co., Ltd., priority 2003, dated 2012).

Experiments:
human NaPi-2a = molecular target: T1, human NaPi-2a (Homo sapiens, UniProt Q06495); assay: Sodium-dependent phosphate uptake of Xenopus oocytes which expressed NaPi-2a (32P); assay type: cell-based; settings: phosphate uptake, Xenopus oocytes expressing human NaPi-2a; five concentration levels
T1 construct: expressed in transfected cells
T1 sequence (Q06495 1-639): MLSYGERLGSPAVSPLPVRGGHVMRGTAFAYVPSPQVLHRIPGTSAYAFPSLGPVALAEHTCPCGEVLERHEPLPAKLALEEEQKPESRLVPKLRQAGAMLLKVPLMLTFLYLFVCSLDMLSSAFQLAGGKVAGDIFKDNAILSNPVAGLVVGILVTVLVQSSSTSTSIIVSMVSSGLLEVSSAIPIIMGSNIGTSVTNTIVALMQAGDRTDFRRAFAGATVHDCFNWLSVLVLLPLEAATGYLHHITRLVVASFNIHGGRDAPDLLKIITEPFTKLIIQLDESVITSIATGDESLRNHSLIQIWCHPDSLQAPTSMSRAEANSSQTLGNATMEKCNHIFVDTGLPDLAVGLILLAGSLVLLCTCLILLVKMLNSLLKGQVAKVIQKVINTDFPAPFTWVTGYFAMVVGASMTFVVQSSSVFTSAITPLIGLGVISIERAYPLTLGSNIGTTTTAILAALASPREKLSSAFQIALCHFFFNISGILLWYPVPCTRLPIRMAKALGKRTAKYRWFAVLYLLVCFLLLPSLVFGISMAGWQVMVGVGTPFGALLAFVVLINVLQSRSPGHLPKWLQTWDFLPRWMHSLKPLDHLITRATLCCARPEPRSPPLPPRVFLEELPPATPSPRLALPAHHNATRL
Excerpt: Experiment of Sodium-Dependent Phosphate Uptake of Xenopus oocytes which Expressed NaPi-2a
In the test, a group with the addition of choline chloride (Choline Cl) was used as a negative control for nonspecific uptake, and PFA (phosphonoformic acid) was used as a positive control for phosphate transport inhibition.

rat NaPi-2b = molecular target: T2, rat NaPi-2b (Rattus norvegicus, UniProt Q9JJ09); assay: Sodium-dependent phosphate uptake of Xenopus oocytes which expressed NaPi-2b (32P); assay type: cell-based; settings: Xenopus oocytes expressing rat NaPi-2b, 32P radioactive phosphorus; read-out: IC50 (phosphate uptake inhibitory activity)
T2 construct: expressed in transfected cells; host or cells: Xenopus oocytes injected with cRNA
T2 sequence (Q9JJ09 1-695): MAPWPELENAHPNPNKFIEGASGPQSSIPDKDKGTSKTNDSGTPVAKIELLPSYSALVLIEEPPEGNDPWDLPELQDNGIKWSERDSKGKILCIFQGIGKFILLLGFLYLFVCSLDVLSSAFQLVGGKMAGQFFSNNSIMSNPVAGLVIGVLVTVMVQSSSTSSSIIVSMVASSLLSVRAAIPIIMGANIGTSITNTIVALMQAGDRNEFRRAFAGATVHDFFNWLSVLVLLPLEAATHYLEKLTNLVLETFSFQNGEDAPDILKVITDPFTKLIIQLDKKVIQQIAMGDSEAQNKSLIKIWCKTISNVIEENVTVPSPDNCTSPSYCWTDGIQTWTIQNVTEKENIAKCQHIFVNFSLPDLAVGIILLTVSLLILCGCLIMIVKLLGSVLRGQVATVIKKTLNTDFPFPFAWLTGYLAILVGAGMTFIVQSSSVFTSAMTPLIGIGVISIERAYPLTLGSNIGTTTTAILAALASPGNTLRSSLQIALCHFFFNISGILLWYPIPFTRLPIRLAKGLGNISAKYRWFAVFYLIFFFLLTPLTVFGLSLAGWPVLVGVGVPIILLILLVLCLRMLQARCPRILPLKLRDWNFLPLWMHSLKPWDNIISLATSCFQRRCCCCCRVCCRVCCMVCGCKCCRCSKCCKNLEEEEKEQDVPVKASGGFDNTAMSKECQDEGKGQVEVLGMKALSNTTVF
Outline: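 Steps: rat NaPi-2b cDNA cloned from small intestine; cRNA made and injected into oocytes; 2-day expression; 32P phosphate uptake with compound; % inhibition at 300/100 μM taken from one curve.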

Compound | IC50 (human NaPi-2a) | IC50 (rat NaPi-2b)
CCN(CC)CCN(C)Cc1cccc(C(=O)Nc2ccc(N3CCCCC3)cc2C(=O)N/N=C/c2ccc(OC)cc2)c1 [Compound 863, 3-{[(2-Diethylamino-ethyl)-methyl-amino]-methyl}-N-[2-(4-methoxy-benzylidene-hydrazinocarbonyl)-4-piperidin-1-yl-phenyl]-benzamide] | 6.9 µM | 1.22 µM
CC(O)CN(Cc1cccc(C(=O)Nc2ccc(F)cc2C(=O)N/N=C/c2cccc(F)c2)c1)CC(C)O (stereo not drawn) [Compound 987, 3-{[Bis-(2-hydroxy-propyl)-amino]-methyl}-N-[4-fluoro-2-(3-fluoro-benzylidene-hydrazinocarbonyl)-phenyl]-benzamide] | 16.3 µM | < 3 µM
Cc1csc(NC(=O)c2cccc(CN(CCO)CCO)c2)c1C(=O)N/N=C/c1ccc(F)cc1 [Compound 788, 3-{[Bis-(2-hydroxy-ethyl)-amino]-methyl}-N-[3-(4-fluoro-benzylidene-hydrazinocarbonyl)-4-methyl-thiophen-2-yl]-benzamide] | 6.64 µM | 2.04 µM
CCN(CC)CCN(CCN(CC)CC)Cc1cccc(C(=O)Nc2scc(C)c2C(=O)N/N=C/c2ccc(F)cc2)c1 [Compound 840, 3-{[Bis-(2-diethylamino-ethyl)-amino]-methyl}-N-[3-(4-fluoro-benzylidene-hydrazinocarbonyl)-4-methyl-thiophen-2-yl]-benzamide] | 34.1 µM | 6.95 µM
COc1ccc(/C=N/NC(=O)c2c(C)csc2NC(=O)c2cccc(CN(CCO)CCO)c2)cc1 [Compound 791, 3-{[Bis-(2-hydroxy-ethyl)-amino]-methyl}-N-[3-(4-methoxy-benzylidene-hydrazinocarbonyl)-4-methyl-thiophen-2-yl]-benzamide] | 6.7 µM | 5.5 µM
CC(O)CN(Cc1cccc(C(=O)Nc2sc3c(c2C(=O)N/N=C/c2cccc(F)c2)CCC3)c1)CC(C)O (stereo not drawn) [Compound 806, 3-{[Bis-(2-hydroxy-propyl)-amino]-methyl}-N-[3-(3-fluoro-benzylidene-hydrazinocarbonyl)-5,6-dihydro-4H-cyclopenta[b]thiophen-2-yl]-benzamide] | 12.1 µM | 3.9 µM
CCN(CC)CCN(CCN(CC)CC)Cc1cccc(C(=O)Nc2scc(C)c2C(=O)N/N=C/c2cccc(F)c2)c1 [Compound 841, 3-{[Bis-(2-diethylamino-ethyl)-amino]-methyl}-N-[3-(3-fluoro-benzylidene-hydrazinocarbonyl)-4-methyl-thiophen-2-yl]-benzamide] | 19.9 µM | < 3 µM
Cc1ccc(/C=N/NC(=O)c2cc(N3CCCCC3)ccc2NC(=O)c2cccc(CSCCC(=O)O)c2)cc1 [Compound 887, 3-{3-[2-(4-Methyl-benzylidene-hydrazinocarbonyl)-4-piperidin-1-yl-phenylcarbamoyl]-benzylsulfanyl}-propionic acid] | 15.1 µM | 1.75 µM
CCN(CC)CCNCc1cccc(C(=O)Nc2sc3c(c2C(=O)N/N=C/c2ccc(C)c(C)c2)CCC3)c1 [Compound 810, 3-[(2-Diethylamino-ethylamino)-methyl]-N-[3-(3,4-dimethyl-benzylidene-hydrazinocarbonyl)-5,6-dihydro-4H-cyclopenta[b]-thiophen-2-yl]-benzamide] | 23.8 µM | 6.68 µM

Now those with a lower IC50 (human NaPi-2a), led by results:

IC50 (human NaPi-2a) | IC50 (rat NaPi-2b) | Compound
1.41 µM | 0.1 µM | Cc1ccc(/C=N/NC(=O)c2cc(Cl)ccc2NC(=O)c2cccc(CSCC(O)CO)c2)cc1C (stereo not drawn) [Compound 1009, N-[4-Chloro-2-(3,4-dimethyl-benzylidene-hydrazinocarbonyl)-phenyl]-3-(2,3-dihydroxy-propylsulfanylmethyl)-benzamide]
4.45 µM | 0.33 µM | O=C(Nc1ccc(N2CCCCC2)cc1C(=O)N/N=C/c1ccc(F)cc1)c1cccc(CSCCO)c1 [Compound 882, N-[2-(4-Fluoro-benzylidene-hydrazinocarbonyl)-4-piperidin-1-yl-phenyl]-3-(2-hydroxy-ethylsulfanylmethyl)-benzamide]
< 3 µM | 1.33 µM | Cc1ccc(/C=N/NC(=O)c2c(C)csc2NC(=O)c2cccc(CN(CCO)CCO)c2)cc1C [Compound 786, 3-{[Bis-(2-hydroxy-ethyl)-amino]-methyl}-N-[3-(3,4-dimethyl-benzylidene-hydrazinocarbonyl)-4-methyl-thiophen-2-yl]-benzamide]
< 1 µM | 0.65 µM | CCN(CC)CCN(C)Cc1cccc(C(=O)Nc2ccc(N3CCCCC3)cc2C(=O)N/N=C/c2ccc(F)cc2)c1 [Compound 860, 3-{[(2-Diethylamino-ethyl)-methyl-amino]-methyl}-N-[2-(4-fluoro-benzylidene-hydrazinocarbonyl)-4-piperidin-1-yl-phenyl]-benzamide]
6.4 µM | 4.97 µM | Cc1ccc(/C=N/NC(=O)c2c(C)csc2NC(=O)c2cccc(CN3CCC4(CC3)OCCO4)c2)cc1C [Compound 832, N-[3-(3,4-Dimethyl-benzylidene-hydrazinocarbonyl)-4-methyl-thiophen-2-yl]-3-(1,4-dioxa-8-aza-spiro[4,5]dec-8-ylmethyl)-benzamide]
4.36 µM | < 1 µM | Cc1ccc(/C=N/NC(=O)c2cc(Br)ccc2NC(=O)c2ccc(CSCCO)cc2)cc1 [Compound 264, N-[4-Bromo-2-(4-methyl-benzylidene-hydrazinocarbonyl)-phenyl]-4-(2-hydroxy-ethylsulfanylmethyl)-benzamide]
1.65 µM | 0.35 µM | CCN(CC)CCN(C)Cc1cccc(C(=O)Nc2ccc(N3CCCCC3)cc2C(=O)N/N=C/c2ccc(Cl)c(C(F)(F)F)c2)c1 [Compound 862, N-[2-(4-Chloro-3-trifluoromethyl-benzylidene-hydrazinocarbonyl)-4-piperidin-1-yl-phenyl]-3-{[(2-diethylamino-ethyl)-methyl-amino]-methyl}-benzamide]
< 1 µM | < 1 µM | Cc1ccc(/C=N/NC(=O)c2cc(N3CCCCC3)ccc2NC(=O)c2cccc(CSCC(O)CO)c2)cc1C (stereo not drawn) [Compound 899, 3-(2,3-Dihydroxy-propylsulfanylmethyl)-N-[2-(3,4-dimethyl-benzylidene-hydrazinocarbonyl)-4-piperidin-1-yl-phenyl]-benzamide]
< 3 µM | < 3 µM | Cc1sc(NC(=O)c2cccc(CN(CC(C)O)CC(C)O)c2)c(C(=O)N/N=C/c2ccc(F)cc2)c1C (stereo not drawn) [Compound 846, 3-{[Bis-(2-hydroxy-propyl)-amino]-methyl}-N-[3-(4-fluoro-benzylidene-hydrazinocarbonyl)-4,5-dimethyl-thiophen-2-yl]-benzamide]
2.53 µM | < 1 µM | Cc1ccc(/C=N/NC(=O)c2cc(N3CCCCC3)ccc2NC(=O)c2cccc(CSCC(O)CO)c2)cc1 (stereo not drawn) [Compound 900, 3-(2,3-Dihydroxy-propylsulfanylmethyl)-N-[2-(4-methyl-benzylidene-hydrazinocarbonyl)-4-piperidin-1-yl-phenyl]-benzamide]
4.42 µM | 1.1 µM | O=C(Nc1ccc(Br)cc1C(=O)N/N=C/c1ccc(F)cc1)c1ccc(CSCCO)cc1 [Compound 262, N-[4-Bromo-2-(4-fluoro-benzylidene-hydrazinocarbonyl)-phenyl]-4-(2-hydroxy-ethylsulfanylmethyl)-benzamide]
< 3 µM | 3.91 µM | Cc1csc(NC(=O)c2cccc(CN3CCN(c4ncccn4)CC3)c2)c1C(=O)N/N=C/c1cccc(F)c1 [Compound 829, N-[3-(3-Fluoro-benzylidene-hydrazinocarbonyl)-4-methyl-thiophen-2-yl]-3-(4-pyrimidin-2-yl-piperazin-1-ylmethyl)-benzamide]
